From patent publication US20210353648A1, “GRAPIPRANT UNIT DOSAGE FORMS” (Arrys Therapeutics, Inc., priority 2018, published 2021)
Read-outs that look alike come from different tables or passages of the source.

Legend:
[1] = Phase 1 single ascending dose study of grapiprant OPC: safety and tolerability; assay type: in vivo
Method: (§1) Eligible subjects were to be enrolled into 8 sequential cohorts, corresponding to the planned dose levels of 1 mg, 3 mg, 10 mg, 30 mg, 100 mg, 300 mg, 600 mg, and 1000 mg. […] After determining a maximum tolerated dose (MTD), or after completing the highest dose cohort if a MTD was not determined, Cohort 11 would be enrolled to increase the number of subjects evaluated at the MTD (or the highest dose).
(§2) In each dosing period, subjects were confined to the Clinical Research Unit (CRU) for approximately 60 hours (from approximately 36 hours predose through 24 hours postdose), and were instructed to return to the study site at 48 hours postdose for collection of blood samples for safety and pharmacokinetic evaluations. Subjects had triplicate ECG measurements made at select time-points on Day 0 (to provide a time-matched baseline) and through 24 hours postdose. Continuous cardiac monitoring by telemetry was performed for 12 hours postdose (or up to 24 hours, if warranted, based on the pharmacokinetic data). Creatine phosphokinase (CPK; total CPK and CPK-MB isoenzyme) and troponin I levels were monitored predose and at 12 and 24 hours postdose. In each dosing period, blood samples were collected predose and at 0.5, 1, 1.5, 2, 2.5, 3, 4, 6, 8, 12, 16, 24, and 48 hours postdose for pharmacokinetic evaluation. Fecal occult blood was monitored predose and through 48 hours postdose. Urine was collected through 24 hours postdose for exploratory biotransformation analyses. Since grapiprant may be a substrate of efflux transporters, genotyping for P-gp, an efflux transporter, was also planned for this study.
Safety: All subjects were evaluated for safety. Subjects were queried regarding adverse events (AEs) at 24 hours prior to dosing, 0 hours predose (baseline), and 1, 2, 4, 8, and 12 hours postdose. A limited physical examination, clinical laboratory tests, and fecal occult blood test were performed 24 hours prior to dosing. Vital signs measurements and 12-lead ECGs were performed in triplicate (approximately 2 minutes apart) at specified intervals in the 24 hours before dosing, 0 hours (predose), and at 0.5, 1, 1.5, 2, 3, 4, 8, and 12 hours postdose. Continuous cardiac telemetry monitoring was started at 1 hour postdose and continued for 12 hours postdose Fecal occult blood was monitored for 48 hours postdose.

[2] = Phase 1 multiple ascending dose study of grapiprant tablets: safety and tolerability
Excerpt: Study Design: This was a randomized, investigator-blind, subject-blind, sponsor-open, placebo controlled, sequential parallel-group, multiple ascending dose study of grapiprant tablets.
Safety Evaluations: Safety evaluations included clinical monitoring, adverse events (AEs), clinical laboratory tests including renal function tests, bone markers (serum bone-specific alkaline phosphatase and osteocalcin and urinary N-terminal telopeptide of type I collagen), vital signs (heart rate and blood pressure), and 12-lead ECGs.
Safety Analyses: Safety data are presented in tabular and/or graphical format and summarized descriptively.
Bone markers were analyzed as percentage change from baseline and the influence of potential outliers was assessed.

[3] = Phase 1 single ascending dose study of grapiprant OPC: pharmacokinetics; assay type: in vivo, human; details: for AUC(0-t) / Cmax / AUC(0-inf) / Tmax / half-life: human, oral, serum
Method: as §1, §2
Pharmacokinetics: The maximum observed serum concentration (Cmax) of grapiprant was estimated directly from raw serum concentration-time data with Tmax defined as the time of the first occurrence of Cmax. The apparent terminal elimination rate constant (kel) was estimated using least-squares regression analysis of the serum concentration-time data obtained during the terminal log-linear phase. The apparent terminal half-life (T½) was calculated as In 2/kel. Areas under the serum concentration-time curve from time 0 to the last time (Tlast) with a quantifiable concentration [AUC(Tlast)] were estimated using linear/log trapezoidal approximation. Areas under the serum concentration-time curve from time Tlast to infinity [AUC(Tlast-inf)] were estimated as Cpest/kel, where Cpest represented the estimated concentration at time Tlast based on the aforementioned regression analysis. Areas under the serum concentration-time curve from time 0 to infinity [AUC(inf)] were estimated as the sum of AUC(Tlast) and AUC(Tlast-inf). […] Individual serum concentrations of grapiprant were summarized in tabular and graphical form. Concentrations that were determined to be below the lower limit of quantification were assumed to be equal to zero for the pharmacokinetic analyses and mean concentration-time plots.
The 600 mg dose was studied in 2 separate cohorts. The second of these two cohorts was conducted to confirm safety assessments at this dose strength. For the pharmacokinetic analysis, pharmacokinetic parameters of both cohorts were pooled together and analyzed as a single group.

[4] = single 1 mg dose as OPC, fasted, healthy adults, mean
[5] = single 3 mg dose as OPC, fasted, healthy adults, mean
[6] = single 10 mg dose as OPC, fasted, healthy adults, mean
[7] = single 30 mg dose as OPC, fasted, healthy adults, mean
[8] = single 100 mg dose as OPC, fasted, healthy adults, mean
[9] = single 300 mg dose as OPC, fasted, healthy adults, mean
[10] = single 600 mg dose as OPC, fasted, healthy adults, mean
[11] = single 1000 mg dose as OPC, fasted, healthy adults, mean
[12] = single 1500 mg dose as OPC, fasted, healthy adults, mean
[13] = single 2000 mg dose as OPC, fasted, healthy adults, mean

SMILES: CCc1nc2c(C)nc(C)cc2n1-c1ccc(CCNC(=O)NS(=O)(=O)c2ccc(C)cc2)cc1 [Grapiprant, N-((4-(2-ethyl-4,6-dimethyl-1H-imidazo[4,5-c]pyridin-1-yl)phenethyl)carbamoyl)-4-methylbenzenesulfonamide]
- subjects reporting abdominal pain ([1]; 30 mg): 1 subject
- SAEs ([1]; 1 subject at 600 mg (not related), 1 each at 1500 mg and 2000 mg): Three subjects experienced SAEs
- subjects reporting abdominal pain ([1]; 1500 mg): 2 subjects
- incidence of AEs ([1]; 1500 mg treatment group): 4 of 6 subjects
- subjects reporting abdominal pain ([1]; 2000 mg): 4 subjects
- incidence of AEs ([1]; 2000 mg treatment group): 5 of 6 subjects
- serum creatinine and BUN (COSTART term: acute renal failure) ([1]; 2 subjects, 1 each at 1500 mg and 2000 mg): mild, treatment-related elevations in serum creatinine and BUN
- subjects experiencing AEs ([1]; 26 of the 61 subjects treated, single doses 1 mg to 2000 mg): 43%
- deaths or discontinuations due to AEs ([1]; all dose levels): No deaths or discontinuations due to AEs
- fecal occult blood ([1]; all dose levels): No positive results for fecal occult blood tests
- vital signs measurements, cardiac telemetry, ECG parameters ([1]; all dose levels): No clinically important, study drug-related changes
- subjects with treatment-related abdominal pain ([1]; among the 12 subjects who received 1500 or 2000 mg): 6 subjects
- tolerability ([1]; single doses ranging from 1 mg to 1000 mg): generally well tolerated
- AEs reported ([2]; 50 mg BID, healthy subjects): 7 AEs
- subjects reporting AEs ([2]; 50 mg BID, healthy subjects (9 treated)): 4 subjects
- AEs reported ([2]; 150 mg BID, healthy subjects): 23 AEs
- subjects reporting AEs ([2]; 150 mg BID, healthy subjects (9 treated)): 7 subjects
- AEs reported ([2]; 250 mg BID, elderly subjects): 44 AEs
- subjects reporting AEs ([2]; 250 mg BID, elderly subjects (15 treated)): 14 subjects
- tolerability ([2]; 250 mg BID, elderly subjects with mild renal impairment): well tolerated
- AEs reported ([2]; 300 mg BID, healthy subjects): 13 AEs
- subjects reporting AEs ([2]; 300 mg BID, healthy subjects (9 treated)): 6 subjects
- deaths ([2]; all cohorts): No deaths
- severity of most treatment-emergent AEs ([2]; all cohorts): mild
- vital signs and ECGs ([2]; all cohorts): no clinically significant mean changes from baseline
- systolic blood pressure ([2]; elderly subjects with mild renal impairment, 250 mg BID, versus placebo group): small increase from baseline
- laboratory safety tests, including renal function tests ([2]; grapiprant versus placebo): no clinically significant findings
- systolic blood pressure ([2]; healthy subjects, doses up to 300 mg BID, triplicate BP monitoring): no difference between changes from baseline compared with placebo
- tolerability ([2]; multiple-dose administration for 14 days, doses up to 300 mg BID, healthy adult subjects): well tolerated
- withdrawal due to AE ([2]; one elderly subject, 250 mg BID): non-drug related AE of ventricular tachycardia
- serious AEs considered related to the study medication ([2]; one healthy subject, 150 mg BID): decreased hemoglobin, decreased hematocrit, and gastrointestinal hemorrhage
- increase of mean serum exposure parameters with dose ([3]; between the 100 mg and 600 mg dose levels, OPC, fasted): greater than dose-proportional increases
- AUC(0-t) [3, 4]: 59.1 ng·h/mL
- Cmax [3, 4]: 6.59 ng/mL
- AUC(0-inf) [3, 5]: 260 ng·h/mL
- AUC(0-t) [3, 5]: 246 ng·h/mL
- Cmax [3, 5]: 23.1 ng/mL
- AUC(0-inf) [3, 6]: 917 ng·h/mL
- AUC(0-t) [3, 6]: 901 ng·h/mL
- Cmax [3, 6]: 110 ng/mL
- AUC(0-inf) [3, 7]: 2150 ng·h/mL
- AUC(0-t) [3, 7]: 2120 ng·h/mL
- Cmax [3, 7]: 262 ng/mL
- AUC(0-inf) [3, 8]: 7220 ng·h/mL
- AUC(0-t) [3, 8]: 7170 ng·h/mL
- Cmax [3, 8]: 1440 ng/mL
- AUC(0-inf) [3, 9]: 31300 ng·h/mL
- AUC(0-t) [3, 9]: 31200 ng·h/mL
- Cmax [3, 9]: 12000 ng/mL
- AUC(0-inf) [3, 10]: 92500 ng·h/mL
- AUC(0-t) [3, 10]: 92200 ng·h/mL
- Cmax [3, 10]: 45000 ng/mL
- AUC(0-inf) [3, 11]: 175000 ng·h/mL
- AUC(0-t) [3, 11]: 174000 ng·h/mL
- Cmax [3, 11]: 64300 ng/mL
- AUC(0-inf) [3, 12]: 242000 ng·h/mL
- AUC(0-t) [3, 12]: 242000 ng·h/mL
- Cmax [3, 12]: 83800 ng/mL
- AUC(0-inf) [3, 13]: 479000 ng·h/mL
- AUC(0-t) [3, 13]: 478000 ng·h/mL
- Cmax [3, 13]: 134000 ng/mL
- Tmax ([3]; 1 mg, single 1 mg dose as OPC, fasted, healthy adults, median, read-out: Tmax): 2.5 h
- half-life ([3]; 3 mg, single 3 mg dose as OPC, fasted, healthy adults, mean, read-out: T½ (converted)): 5.34 h
- Tmax ([3]; 3 mg, single 3 mg dose as OPC, fasted, healthy adults, median, read-out: Tmax): 3 h
- half-life ([3]; 10 mg, single 10 mg dose as OPC, fasted, healthy adults, mean, read-out: T½ (converted)): 5.1 h
- Tmax ([3]; 10 mg, single 10 mg dose as OPC, fasted, healthy adults, median, read-out: Tmax): 2 h
- half-life ([3]; 30 mg, cohorts with clear bi-exponential decline (30 mg and above), read-out: mean terminal phase T1/2): 6.14 to 9.41 h
- half-life ([3]; 30 mg, single 30 mg dose as OPC, fasted, healthy adults, mean, read-out: T½ (converted)): 6.14 h
- Tmax ([3]; 30 mg, single 30 mg dose as OPC, fasted, healthy adults, median, read-out: Tmax): 1 h
- Tmax ([3]; 100 mg, doses of 100 mg and above, OPC, fasted, read-out: individual Tmax values): 0.5 to 1 h
- half-life ([3]; 100 mg, single 100 mg dose as OPC, fasted, healthy adults, mean, read-out: T½ (converted)): 6.91 h
- Tmax ([3]; 100 mg, single 100 mg dose as OPC, fasted, healthy adults, median, read-out: Tmax): 0.75 h
- half-life ([3]; 300 mg, single 300 mg dose as OPC, fasted, healthy adults, mean, read-out: T½ (converted)): 7.98 h
- Tmax ([3]; 300 mg, single 300 mg dose as OPC, fasted, healthy adults, median, read-out: Tmax): 0.75 h
- half-life ([3]; 600 mg, single 600 mg dose as OPC, fasted, healthy adults, mean, read-out: T½ (converted)): 8.03 h
- Tmax ([3]; 600 mg, single 600 mg dose as OPC, fasted, healthy adults, median, read-out: Tmax): 0.5 h
- half-life ([3]; 1000 mg, single 1000 mg dose as OPC, fasted, healthy adults, mean, read-out: T½ (converted)): 9.41 h
- Tmax ([3]; 1000 mg, single 1000 mg dose as OPC, fasted, healthy adults, median, read-out: Tmax): 1 h
- half-life ([3]; 1500 mg, single 1500 mg dose as OPC, fasted, healthy adults, mean, read-out: T½ (converted)): 8.13 h
- Tmax ([3]; 1500 mg, single 1500 mg dose as OPC, fasted, healthy adults, median, read-out: Tmax): 0.75 h
- half-life ([3]; 2000 mg, single 2000 mg dose as OPC, fasted, healthy adults, mean, read-out: T½ (converted)): 8.25 h
- Tmax ([3]; 2000 mg, single 2000 mg dose as OPC, fasted, healthy adults, median, read-out: Tmax): 1 h
- Tmax ([3]; across the dose groups, 1 mg to 2000 mg OPC, fasted, read-out: median Tmax estimates): 0.5 to 3 h
- half-life ([3]; over the range of doses studied, OPC, fasted, read-out: mean terminal phase T1/2): 5.1 to 9.41 h
- serum concentration-time profile ([3]; single oral dose of OPC formulation, about 1 mg to 2000 mg): rapid absorption followed by a bi-exponential decline in serum concentration
